This note sets out measurements from patent US11098061B2 (Celgene CAR LLC, priority 2013, dated 2021).

One experiment concerns the target MK2 (Homo sapiens (Human), UniProt P49137). Put plainly: MK2 modification assessment by whole protein mass spectrometry. It counts as binding. The following applies: intact MK2, 60 min, 10-fold excess of compound to protein. Here is the method:
Modification of MK2 is measured by whole protein MS analysis. […] 5 μL aliquots of the samples were diluted with 15 μL of 0.2% TFA prior to micro C4 ZipTipping directly onto the MALDI target using sinapinic acid as the desorption matrix (10 mg/ml in 0.1% TFA:Acetonitrile 50:50). Analysis was performed on a AB Sciex 4800 MALDI TOF/TOF retro fitted with an HM2 detector (CovalX). Percent modification of target MK2 (i.e., the percent of total MK2 modified by the test compound) for each compound was calculated by subtracting the centroid mass of the compound treated MK2 from the centroid mass of the control MK2 and dividing that value with the mass of the compound.

Experiment [1] has as its target p38a activated, mitogen-activated protein kinase-activated protein kinase 2 (MAPKAP-K2 or MK-2) enzyme (Homo sapiens (Human), UniProt P49137). Kind of experiment: MK2 Omnia continuous-read kinase assay for compound potency. It counts as biochemical. As to conditions: [MK-2]=0.4 nM, [ATP]=1.0 mM, [ST3-Sox]=10 μM. From the text: The protocol below describes a continuous-read kinase assay optimized to measure potency of compounds against p38a activated, mitogen-activated protein kinase-activated protein kinase 2 (MAPKAP-K2 or MK-2) enzyme. The mechanics of the assay platform are best described by the vendor (Invitrogen, Carlsbad, Calif.) on their website at the following URL: invitrogen.com/search/global/searchAction. action?resultPage=1 &resultsPerPage=15 &query=om nia&personaFilterTerm=Support+%26+Troubleshoot
Kinase reactions were started with the addition of 40 μL of MK-2 enzyme and monitored every 71 seconds for 30-240 minutes at λex360/λem485 in a Synergy^2, Synergy^4 or Synergy H^4 plate reader from BioTek (Winooski, Vt.). […] Initial velocity (0 minutes to +30 minutes) from each reaction was estimated from the slope of a plot of relative fluorescence units vs time (minutes) and normalized to the no enzyme and no inhibitor control groups for % Inhibition. The resulting % Inhibition values were then plotted against inhibitor concentration to estimate IC50 from log[Inhibitor] vs Response, Variable Slope model in GraphPad Prism from GraphPad Software (San Diego, Calif.).
[MK-2]=0.4 nM, [ATP]=1.0 mM and [ST3-Sox]=10 μM (ATP ^appKM=8-10 μM)

MK2, sequence (P49137 whole entry): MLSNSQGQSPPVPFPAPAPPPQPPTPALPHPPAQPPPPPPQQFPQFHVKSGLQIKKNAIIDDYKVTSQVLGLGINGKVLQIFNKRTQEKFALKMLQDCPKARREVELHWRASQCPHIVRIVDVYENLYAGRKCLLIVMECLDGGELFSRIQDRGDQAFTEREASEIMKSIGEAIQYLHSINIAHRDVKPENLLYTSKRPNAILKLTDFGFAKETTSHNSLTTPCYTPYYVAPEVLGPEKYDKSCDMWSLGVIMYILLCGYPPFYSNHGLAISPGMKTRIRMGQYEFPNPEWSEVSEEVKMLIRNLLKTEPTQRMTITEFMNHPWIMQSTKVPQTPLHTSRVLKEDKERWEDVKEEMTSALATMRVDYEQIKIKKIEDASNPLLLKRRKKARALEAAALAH
p38a activated, mitogen-activated protein kinase-activated protein kinase 2 (MAPKAP-K2 or MK-2) enzyme, sequence (P49137 whole entry): as above

By IC50 is commonly meant the point on the concentration scale where inhibition reaches its midpoint. `CN(C)C/C=C/C(=O)N1CCOc2ccc(NC(=O)c3ccc4cc5n(c4c3)CCNC5=O)cc21` [Compound V-4, (E)-N-(4-(4-(dimethylamino)but-2-enoyl)-3,4-dihydro-2H-benzo[b][1,4]oxazin-6-yl)-1-oxo-1,2,3,4-tetrahydropyrazino[1,2-a]indole-7-carboxamide]: the “MK2 Mass Mod” value at MK2 was “G (mass modification ≤30%)”. Also, the IC50 in experiment [1] is more than 1000 nM.
Consider `C=CC(=O)N[C@H]1COC[C@H]1NC(=O)c1ccc2cc3n(c2c1)C1(CCC1)CNC3=O` (racemic) [Compound V-49, Cis-N-(4-acrylamidotetrahydrofuran-3-yl)-1′-oxo-2′,3′-dihydro-1′H-spiro[cyclobutane-1,4′-pyrazino[1,2-a]indole]-7′-carboxamide (racemic)], for which the “MK2 Mass Mod” value on MK2 is listed as “G (mass modification ≤30%)”. In addition, in experiment [1], the IC50 was more than 1000 nM.
With `C=CC(=O)NC1CN(C)CC1NC(=O)c1ccc2sc3c(c2c1)NC[C@@H](C)NC3=O` (some centres unmarked) [III-50], the “MK2 Mass Mod” value at MK2 is “G (mass modification ≤30%)”. In addition, the IC50 in experiment [1] was less than 100 nM.
`C=CC(=O)N1Cc2cccc(NC(=O)c3ccc4cc5n(c4c3)C3(CCC3)CNC5=O)c2C1` [Compound V-48, N-(2-acryloylisoindolin-4-yl)-1′-oxo-2′,3′-dihydro-1′H-spiro[cyclobutane-1,4′-pyrazino [1,2-a]indole]-7′-carboxamide]: the “MK2 Mass Mod” value at MK2 is recorded as “G (mass modification ≤30%)”. Moreover, the IC50 in experiment [1] is more than 1000 nM.
For `C=CC(=O)Nc1ccc2oc(-c3ccc4cc5n(c4c3)C3(CCC3)CNC5=O)nc2c1` [Compound V-60, N-(2-(1′-oxo-2′,3′-dihydro-1′H-spiro[cyclobutane-1,4′-pyrazino [1,2-a]indol]-7′-yl)benzo[d]oxazol-5-yl)acrylamide], in that order: “G (mass modification ≤30%)” and less than 100 nM.
For `C=CC(=O)NC1CCCCC1NC(=O)c1ccc2cc3n(c2c1)CCNC3=O` (racemic) [Compound V-10, Racemic N-((1S,2R)-2-acrylamidocyclohexyl)-1-oxo-1,2,3,4-tetrahydropyrazino[1,2-a]indole-7-carboxamide], in that order: “G (mass modification ≤30%)” and more than 1000 nM.
For `C=CC(=O)NCc1csc(NC(=O)c2ccc3cc4n(c3c2)C2(CCC2)CNC4=O)n1` [Compound V-43, N-(4-(acrylamidomethyl)thiazol-2-yl)-1′-oxo-2′,3′-dihydro-1′H-spiro[cyclobutane-1,4′-pyrazino[1,2-a]indole]-7′-carboxamide], in that order: “G (mass modification ≤30%)” and more than 1000 nM.
`C=CC(=O)Nc1cc(-c2cc3c(cn2)CCc2c4c(n(C)c2-3)CC2(CC2)NC4=O)ccc1OCCOC` [II-7, N-(2-(2-methoxyethoxy)-5-(11′-methyl-7′-oxo-5′,6′,7′,8′,10′,11′-hexahydrospiro[cyclopropane-1,9′-pyrido[3′,4′:4,5]pyrrolo[2,3-f]isoquinolin]-2′-yl)phenyl)acrylamide]: the “MK2 Mass Mod” value on MK2 is “E (mass modification of ≥70%)”. Besides, in experiment [1], the IC50 is 101 to 500 nM.
In the case of `C=CC(=O)NC1COCC1NC(=O)c1ccc2sc3c(c2c1)NC[C@@H](C)NC3=O` (some centres unmarked) [III-48], the “MK2 Mass Mod” value at MK2 is “G (mass modification ≤30%)”. Moreover, the IC50 in experiment [1] was less than 100 nM.
Turning to `C=CC(=O)Nc1cc(C(=O)Nc2cc(-c3cc4c([nH]3)C3(CCCNC3)CNC4=O)ccn2)ccc1F` (racemic) [Compound I-24, 3-acrylamido-4-fluoro-N-(4-(4′-oxo-1′,4′,5′,6′-tetrahydrospiro[piperidine-3,7′-pyrrolo[3,2-c]pyridin]-2′-yl)pyridin-2-yl)benzamide], the “MK2 Mass Mod” value at MK2 is given as “F (mass modification of 31-69%)”. Further, the IC50 in experiment [1] is 101 to 500 nM.
On to `C=CC(=O)Nc1ccccc1NC(=O)c1ccc2cc3n(c2c1)C1(CCC1)CNC3=O` [Compound V-14, N-(2-acrylamidophenyl)-1′-oxo-2′,3′-dihydro-1′H-spiro[cyclobutane-1,4′-pyrazino [1,2-a]indole]-7′-carboxamide], for which the “MK2 Mass Mod” value at MK2 is recorded as “E (mass modification of ≥70%)”. In addition, the IC50 in experiment [1] is more than 1000 nM.
For `C=CC(=O)N1CCOc2ccc(-c3ncc4c(n3)-c3[nH]c5c(c3CC4)C(=O)NCC5)cc21` [II-24, 2-(4-acryloyl-3,4-dihydro-2H-benzo[b][1,4]oxazin-6-yl)-8,9,10,11-tetrahydro-SH-pyrido[3′,4′:4,5]pyrrolo[3,2-h]i quinazolin-7(6H)-one], in that order: “E (mass modification of ≥70%)” and less than 100 nM.
With `C=CC(=O)Nc1cc(-c2cc(-c3cc4c(s3)C(=O)N[C@H](C)CN4)ccn2)ccc1OCCOC` [III-d-1, (R)—N-(2-(2-methoxyethoxy)-5-(4-(3-methyl-5-oxo-2,3,4,5-tetrahydro-1H-thieno[3,2-e][1,4]diazepin-7-yl)pyridin-2-yl)phenyl)acrylamide], the “MK2 Mass Mod” value on MK2 is recorded as “E (mass modification of ≥70%)”. In addition, the IC50 in experiment [1] is more than 1000 nM.
For `C=CC(=O)Nc1ccccc1NC(=O)c1ccc2cc3n(c2c1)CCNC3=O` [Compound V-8, N-(2-acrylamidophenyl)-1-oxo-1,2,3,4-tetrahydropyrazino[1,2-a]indole-7-carboxamide], in that order: “E (mass modification of ≥70%)” and more than 1000 nM.
With `CN(C)C/C=C/C(=O)Nc1ccccc1NC(=O)c1ccc2cc3n(c2c1)CCNC3=O` [Compound V-5, (E)-N-(2-(4-(dimethylamino)but-2-enamido)phenyl)-1-oxo-1,2,3,4-tetrahydropyrazino[1,2-a]indole-7-carboxamide], the “MK2 Mass Mod” value at MK2 is “G (mass modification ≤30%)”. Also, in experiment [1], the IC50 was more than 1000 nM.
As for `C=CC(=O)Nc1cc(-c2cc(Nc3c(N[C@H](C)c4ccccc4)c(=O)c3=O)ccn2)ccc1OC` [VI-9, (R)—N-(5-(4-((3,4-dioxo-2-((1-phenylethyl)amino)cyclobut-1-en-1-yl)amino)pyridin-2-yl)-2-methoxyphenyl)acrylamide], the “MK2 Mass Mod” value on MK2 was “G (mass modification ≤30%)”. Besides, the IC50 in experiment [1] was more than 1000 nM.
Turning to `C=CC(=O)Nc1cc(-c2nccc(-c3cc4c([nH]3)CCNC4=O)n2)cnc1OCCOC` [II-21, N-(2-(2-methoxyethoxy)-5-(4-(4-oxo-4,5,6,7-tetrahydro-1H-pyrrolo[3,2-c]pyridin-2-yl)pyrimidin-2-yl)pyridin-3-yl)acrylamide], the “MK2 Mass Mod” value at MK2 is “E (mass modification of ≥70%)”. Also, the IC50 in experiment [1] is less than 100 nM.
With `C=CC(=O)N1CCOc2ncc(-c3nccc(-c4cc5c([nH]4)CCNC5=O)n3)cc21` [II-23, 2-(2-(1-acryloyl-2,3-dihydro-1H-pyrido[2,3-b][1,4]oxazin-7-yl)pyrimidin-4-yl)-6,7-dihydro-1H-pyrrolo[3,2-c]pyridin-4(5H)-one], the “MK2 Mass Mod” value on MK2 was “E (mass modification of ≥70%)”. In addition, the IC50 in experiment [1] is less than 100 nM.
Regarding `C=CC(=O)Nc1cc(-c2cc(-c3cc4c([nH]3)C3(CCCNC3)CNC4=O)ccn2)ccc1N1CCN(C)CC1` (racemic) [Compound I-10, N-(2-(4-methylpiperazin-1-yl)-5-(4-(4′-oxo-1′,4′,5′,6′-tetrahydrospiro[piperidine-3,7′-pyrrolo[3,2-c]pyridin]-2′-yl)pyridin-2-yl)phenyl)acrylamide], on MK2, the “MK2 Mass Mod” value is on record as “E (mass modification of ≥70%)”. The IC50 in experiment [1] is less than 100 nM.
Take `C=CC(=O)N[C@@H]1CCCN(C(=O)c2ccc3cc4n(c3c2)C2(CCC2)CNC4=O)C1` [Compound V-52, (R)—N-(1-(1′-oxo-2′,3′-dihydro-1′H-spiro[cyclobutane-1,4′-pyrazino [1,2-a]indol]-7′-ylcarbonyl)piperidin-3-yl)acrylamide]: at MK2, the “MK2 Mass Mod” value is on record as “G (mass modification ≤30%)”. The IC50 in experiment [1] was more than 1000 nM.
For the molecule `C=CC(=O)N1CCOc2ncc(-c3ncc4c(n3)-c3[nH]c5c(c3CC4)C(=O)NCC5)cc21` [II-17, 2-(1-acryloyl-2,3-dihydro-1H-pyrido[2,3-b][1,4]oxazin-7-yl)-8,9,10,11-tetrahydro-SH-pyrido[3′,4′:4,5]pyrrolo[3,2-h]quinazolin-7(6H)-one], the “MK2 Mass Mod” value at MK2 is recorded as “E (mass modification of ≥70%)”. The IC50 in experiment [1] is less than 100 nM.
Consider `C=CC(=O)NC1CCCC1NC(=O)c1ccc2cc3n(c2c1)C1(CCC1)CNC3=O` (racemic) [Compound V-55, N-cis-(2-acrylamidocyclopentyl)-1′-oxo-2′,3′-dihydro-1′H-spiro[cyclobutane-1,4′-pyrazino[1,2-a]indole]-7′-carboxamide (racemic)], for which the “MK2 Mass Mod” value on MK2 is “G (mass modification ≤30%)”. In addition, in experiment [1], the IC50 was more than 1000 nM.
